Results taken from article PMC6201879, “N-substituted phenylbenzamides of the niclosamide chemotype attenuate obesity related changes in high fat diet fed mice” (PLoS ONE, 2018).

Test system: Phosphorylated AMPK (Thr-172)
Assay: High-throughput phosphorylated AMPK (Thr-172) TR-FRET assay in HepG2 cells
Format: cell-based, human
Settings: HepG2 TR-FRET dose response between 0.625 and 10 μM, 4 hours; also Western blot
Method: Phosphorylated AMPK (Thr-172) TR-FRET Assay Kit was purchased from CisBio (Bedford MA). HepG2 [HB-8065] cells were trypsinized, harvested and counted using Countess II FL automated cell counter (Thermo Fisher Scientific). Cells were then seeded in Poly-D-Lysine coated 96-well black optical plates at a concentration of 10,000 cells per well in 50μL growth medium. After 24-hours, the media was removed and replaced with 50μL of fresh growth media containing compounds. Five concentrations of each compound were prepared, ranging from 10 to 0.625 μM and applied to columns 2–11 of the cell plate. Control wells contained DMSO (column 1-minimum response control) or 500199 (column 12-maximum response control). The final DMSO concentration was 0.45%. Cells were cultured for 4 hours before cells were lysed in 50μL of lysis buffer for 30 minutes at room temperature according to assays protocol. Following lysis, 16μL of lysate was transferred to white 384 well small volume assay plate and 4μL of antibody dyes were added per assay protocol.
Following overnight incubation, quantitation was performed on a PHERAstar (BMG), using the HTRF protocol with an excitation wavelength of 337nm and emission wavelengths of 665nm and 620nm. The ratio between emission spectra (665/620) was assessed for each well individually and averaged for triplicate samples. Data are presented as mean ratio ± SE. The differences between the control (DMSO) and the compound treated wells were analyzed using two-way ANOVA and Dunnett’s post hoc test. A value of p<0.05 was considered to be significant.
Fig 5 Validation of AMPK pathway activation by phenylbenzamide derivatives in HepG2 cells. A) Cells were seeded at 10,000 cells per well 24 hours prior to treating cells with indicated concentration of compound or DMSO (CTL) for 4 hours. 16μL of cell lysate was incubated with HTRF phospho-AMPK detection reagents and fluorescence emission read at 665nm and 620nm using a PHERAstar platereader. The mean and standard deviation of the HTRF Ratio from three replicate wells is shown. The unstimulated (DMSO) and positive controls lysates are shown in green and red respectively.

CC(C)(C)c1cc(C(=O)Nc2ccc(C(=O)O)cc2Cl)c(O)c(C(C)(C)C)c1 [Compound 600453, 3-Chloro-4-[(3,5-di-tert-butyl-2-hydroxybenzene)amido]benzoic acid]
phosphorylation of AMPK (Figs 5 and 4D): stimulated phosphorylation of AMPK
